Measured values as given in PubChem BioAssay (NCI).
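Exposure lasted 48 hours, with cells grown in 96-well plates and compounds tested at five concentrations. The concentration for 50% growth inhibition is given as GI50. TGI denotes the concentration required for complete inhibition of growth.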

Columns and labels:
Experiment in all cases: NCI tumour cell line growth inhibition, 48 h
M14 melanoma = tested on: M14 melanoma
K-562 leukemia = tested on: K-562 leukemia
ACHN renal = tested on: ACHN renal
OVCAR-8 ovarian = tested on: OVCAR-8 ovarian
SK-MEL-2 melanoma = tested on: SK-MEL-2 melanoma
OVCAR-5 ovarian = tested on: OVCAR-5 ovarian
MALME-3M melanoma = tested on: MALME-3M melanoma
SF-268 CNS = tested on: SF-268 CNS
NCI-H226 lung = tested on: NCI-H226 lung
OVCAR-4 ovarian = tested on: OVCAR-4 ovarian

Structure (SMILES) | TGI (M14 melanoma) | TGI (K-562 leukemia) | TGI (ACHN renal) | TGI (OVCAR-8 ovarian) | TGI (SK-MEL-2 melanoma) | TGI (OVCAR-5 ovarian) | TGI (MALME-3M melanoma) | TGI (SF-268 CNS) | TGI (NCI-H226 lung) | TGI (OVCAR-4 ovarian) | GI50 (M14 melanoma) | GI50 (K-562 leukemia) | GI50 (ACHN renal) | GI50 (OVCAR-8 ovarian) | GI50 (SK-MEL-2 melanoma) | GI50 (OVCAR-5 ovarian) | GI50 (SF-268 CNS) | GI50 (NCI-H226 lung) | GI50 (MALME-3M melanoma) | GI50 (OVCAR-4 ovarian)
N#C/C(=C1\SC(N=Nc2ccccc2)C(=O)N1c1ccccc1)c1nc2ccccc2[nH]1 (stereo not given) | > 100 µM | > 100 µM | > 100 µM | > 100 µM | > 100 µM | > 100 µM | > 100 µM | > 100 µM | > 100 µM | > 100 µM | – | – | – | – | – | – | – | – | – | –
O=c1c2cccc3cccc(c4n1CCN=4)c32 | > 100 µM | > 100 µM | > 100 µM | > 100 µM | > 100 µM | > 100 µM | > 100 µM | > 100 µM | > 100 µM | > 100 µM | – | – | – | – | – | – | – | – | – | –
COc1ccc(OC)c(-c2cc(-c3ccc(Cl)cc3)nn2-c2ccc(S(=O)(=O)NC(C)=O)cc2)c1 | 8.21 µM | > 100 µM | 11.1 µM | 84.3 µM | 70 µM | 19.3 µM | – | 60.9 µM | 23.1 µM | – | 3.04 µM | 3.18 µM | 3.23 µM | 21 µM | 26.6 µM | 5.97 µM | 21.1 µM | 4.07 µM | – | –
COC(=O)C1[C@H](c2cc(OC)c(OC)c(OC)c2)OC(=O)C1(C(=O)OC)C(=O)c1ccc2c(c1)OCO2 (stereo not given in full) | > 100 µM | > 100 µM | > 100 µM | > 100 µM | – | > 100 µM | > 100 µM | > 100 µM | > 100 µM | > 100 µM | – | – | – | – | – | – | – | – | – | –
O=C(OCc1ncc(-c2ccc(C(F)(F)F)cc2)c(NC2CCCCCC2)n1)c1c(F)c(F)c(F)c(F)c1F | 39.6 µM | 30.2 µM | 29.2 µM | 34 µM | – | 36.5 µM | 32.6 µM | 28 µM | 21.2 µM | 30.6 µM | 17.3 µM | 4.86 µM | 14.2 µM | 12.2 µM | – | 20 µM | 12.9 µM | 5.59 µM | 16.6 µM | 15.5 µM
COc1cccc(/C=C/C(=O)c2ccc(Cl)cc2Cl)c1 | 22.3 µM | 26.9 µM | 39.2 µM | 22.7 µM | > 50 µM | 43.7 µM | – | 27.4 µM | 25.7 µM | 41 µM | 10.3 µM | 3.22 µM | 14.3 µM | 9.46 µM | 20.3 µM | 13.6 µM | 11.2 µM | 9.79 µM | – | 10.9 µM
SCCSCCCSCCS | > 100 µM | > 100 µM | – | > 100 µM | – | > 100 µM | – | > 100 µM | – | 98.2 µM | – | – | – | – | – | – | – | – | – | –
CCOC(=O)C(C)(C)Oc1ccc(/C=C/C(=O)c2ccc(Cl)cc2)cc1 | 34.7 µM | 82.2 µM | – | 41.3 µM | 39 µM | – | 34.6 µM | 37.1 µM | 70.5 µM | 32.9 µM | – | – | – | – | – | – | – | – | – | –
O=Cc1cccc2c1Oc1c(cccc1C(=O)O)S2 | > 100 µM | – | > 100 µM | > 100 µM | > 100 µM | > 100 µM | > 100 µM | > 100 µM | > 100 µM | > 100 µM | – | – | – | – | – | – | – | – | – | –
CCOC(=N)/C(=C1\OC(N)=C(c2ccc(Cl)cc2)C1=O)c1ccc(Cl)cc1 | 31.6 µM | 53.6 µM | 51 µM | 28.7 µM | – | 35 µM | 28.2 µM | 31.3 µM | 49.9 µM | 31.9 µM | – | – | – | – | – | – | – | – | – | –
O=C1OC(O)C(Oc2c(Cl)cccc2Cl)=C1Cl (stereo not given) | 33.2 µM | 48 µM | 42.3 µM | 37.9 µM | 34.2 µM | 46 µM | 75.4 µM | 31.3 µM | 42.6 µM | – | – | – | – | – | – | – | – | – | – | –
COc1ccc(/C=N\Nc2ccc([N+](=O)[O-])cn2)cc1OC | > 100 µM | > 100 µM | – | > 100 µM | > 100 µM | > 100 µM | > 100 µM | > 100 µM | > 100 µM | – | > 100 µM | > 100 µM | – | > 100 µM | > 100 µM | > 100 µM | > 100 µM | 8.39 µM | > 100 µM | –
O=[N+]([O-])C1Cc2ccccc2OC1c1ccccc1 (stereo not given) | > 100 µM | > 100 µM | > 100 µM | > 100 µM | – | > 100 µM | > 100 µM | > 100 µM | > 100 µM | > 100 µM | – | – | – | – | – | – | – | – | – | –
CCOc1cccc2ccc[n+](CC)c12 | > 100 µM | > 100 µM | > 100 µM | > 100 µM | – | > 100 µM | > 100 µM | 77.9 µM | > 100 µM | > 100 µM | – | – | – | – | – | – | – | – | – | –
C/C=C/CC(C)[C@@H](O)[C@H](NC)C(=O)O (stereo not given in full) | > 100 µM | > 100 µM | > 100 µM | > 100 µM | > 100 µM | > 100 µM | > 100 µM | > 100 µM | – | > 100 µM | – | – | – | – | – | – | – | – | – | –
Cc1c(C(=O)/C=C/c2ccc(N(C)C)cc2)c(=O)n(-c2ccccc2)n1C | – | – | > 100 µM | > 100 µM | > 100 µM | > 100 µM | > 100 µM | > 100 µM | > 100 µM | – | – | – | – | – | – | – | – | – | – | –
COc1cccc(NC(=O)c2sc3nc4c(cc3c2N)C(=O)CCC4)c1 | > 100 µM | > 100 µM | > 100 µM | > 100 µM | > 100 µM | > 100 µM | > 100 µM | > 100 µM | > 100 µM | – | 0.0943 µM | 0.0513 µM | 0.568 µM | 0.402 µM | 0.0611 µM | 0.635 µM | 0.725 µM | 2.18 µM | 0.108 µM | –
O=c1[nH]c2cc(Cl)ccc2nc1/C(=N\O)C(O)c1ccc([N+](=O)[O-])cc1 (stereo not given) | > 100 µM | > 100 µM | > 100 µM | > 100 µM | > 100 µM | – | > 100 µM | > 100 µM | – | > 100 µM | – | – | – | – | – | – | – | – | – | –
CN(C)C=C1C(Cl)=C(C=O)CC(C=O)=C1Cl | 26.7 µM | 13.8 µM | 26.4 µM | 12.6 µM | 36.9 µM | 30 µM | 24.4 µM | 27.6 µM | – | 27.9 µM | – | – | – | – | – | – | – | – | – | –
N#CCN/C=C\C(=O)c1ccc(Cl)cc1 | > 100 µM | > 100 µM | – | > 100 µM | 53.9 µM | 97.3 µM | 53.6 µM | > 100 µM | > 100 µM | > 100 µM | 20.3 µM | 31.1 µM | – | 38.4 µM | 20 µM | 37.6 µM | 26.7 µM | 30 µM | 17.9 µM | 76.9 µM
